# Results published in patent US6441019B2, “Cyclocarbamate and cyclic amide derivatives” (Wyeth, priority 1999, dated 2002).
row,melting point,Compound
1,149 to 150 °C,"CC1(C)OC(=O)Nc2sc(-c3cccc(Cl)c3)cc21 [Example 1, 6-(3-chlorophenyl)-1,4-dihydro-4,4-dimethyl-2H-thieno [2,3-d][1,3]oxazine-2-one]"
2,123 to 125 °C,"CC1(C)OC(=O)Nc2cc(-c3cccc(Cl)c3)sc21 [Example 2, 6-(3-chlorophenyl)-1,4-dihydro-4,4-dimethyl-2H-thieno[3,2-d][1,3]oxazine-2-one]"
